Measurements from patent US9034891B2, “Bicyclic heterocyclic spiro compounds” (ISRAEL INSTITUTE FOR BIOLOGICAL RESEARCH, priority 2009, dated 2015).

Key:
PC12 cells = assay: MTT assay, β-amyloid 25-35 toxicity in PC12 cells; type: cell-based, rat; conditions: 5 μM β-amyloid 25-35, 6 hours; 10 μM-1 nM
Description: The 3-(4,5-dimethylthiazol-2-yl)-2,5-diphenyl-tetrazolium bromide (MTT) assay measures changes that occur within the cells, involving mitochondria activation, indicative of a process that eventually leads to cell death (Fagarasan et al., Mol. Psychiat. 1996, 1:398-403). This assay is a specific, early indicator of the mechanism of β-amyloid-mediated cell death (Shearman et al., PNAS USA 1994, 91:1470-74). This assay was used to evaluate compounds of formulae I and II. Rat pheochromocytoma (PC12) cells were plated in 96 well plate at a density of 10,000 cells/well, and maintained in Dulbecco's modified Eagle medium (Gibco, Cat. 21969) supplemented with 5% fetal bovine serum (Biological Industries, Cat. 04-121-1A), 10% heat-inactivated horse serum (Gibco Cat. 26050), L-Glutamine 200 mM (Biological Industries, Cat. 03-020-1C), Penicillin 10000 U/ml (Biological Industries, Cat 03-031-1C), and Amphotericin B 50 mg/ml (Biological Industries, Cat. 01-029-1C). The next day the medium was refreshed with serum free media and cells were treated with 5 μM β-amyloid 25-35 (H-1192.0001, Bachem) in the presence or absence of the test compound. Compounds were tested for 6 hours, respectively, at final concentrations ranging between 0.1 nM to 100 μM. 3-Indolepropionic acid (3-IPA, Cat. 220027, Sigma Aldrich) served as a reference antioxidant.

M1 mAChR [1] = target: T1, M1 mAChR (Homo sapiens, UniProt P11229); assay: Intracellular Ca2+ mobilization (Fluo-4 NW) in cells stably transfected with M1 mAChR; type: cell-based; set-up: expressed in transfected cells; conditions: 100 μM; mobilization of intracellular Ca ions
T1 sequence (P11229 1-460): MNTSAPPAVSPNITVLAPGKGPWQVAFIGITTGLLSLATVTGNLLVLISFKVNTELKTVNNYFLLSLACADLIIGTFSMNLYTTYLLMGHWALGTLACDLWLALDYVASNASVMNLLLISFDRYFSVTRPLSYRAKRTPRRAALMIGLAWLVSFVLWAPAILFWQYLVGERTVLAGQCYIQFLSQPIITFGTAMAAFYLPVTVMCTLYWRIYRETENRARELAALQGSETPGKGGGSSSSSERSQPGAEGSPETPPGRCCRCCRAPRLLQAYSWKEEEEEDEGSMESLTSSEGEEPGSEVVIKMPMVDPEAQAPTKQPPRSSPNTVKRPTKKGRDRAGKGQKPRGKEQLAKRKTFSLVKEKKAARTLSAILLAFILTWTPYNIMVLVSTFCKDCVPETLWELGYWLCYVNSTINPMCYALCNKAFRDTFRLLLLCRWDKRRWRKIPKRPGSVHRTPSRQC
Description: On the day of experiment, cells were fully confluent.
To evaluate selectivity for a subtype of mAChR, in particular the M1 mAChR vs. M3 and MS mAChR, the assays were calibrated using ligands that have a combined activity, e.g. M1 agonistic and M3 antagonistic or M1 agonistic and MS antagonistic profiles, respectively. This can eliminate effects due to different receptor reserves in cell-based assays.

M1 mAChR [2] = target: T1, M1 mAChR; assay: αAPPs secretion in CHO cells double transfected with human APP695 and human M1 mAChR; type: cell-based
Experimental: (§1) α-APPs Secretion studies following incubation with the tested compounds were performed as described in Haring, et al. J. Neurochem., 1998, 71:2094-103. […] A day later, cells were washed twice with serum free media, and treated with the test compound at various concentrations ranging from 0.1 nM to 100 μM. […] After 1 hour the conditioned medium was collected to cold Eppendorf tubes, which included a protease inhibitor cocktail (0.1 mM phenylmethylsulphonyl fluoride (PMSF); 5 μg/ml leupeptin; 5 μg/ml pepstatin and 5 units/ml aprotinin) for determining αAPPs release. The protein content of each sample was concentrated using Centricon tubes (Amicon, Beverly, Mass.). […] CHO cells double transfected with human APP695 and M1 mAChR APPs bands were probed using anti-amyloid beta protein (1:1000, monoclonal 6E10 antibody, MAB1560, Chemicon) and peroxidase-linked rabbit anti mouse IgG (1:5,000; Jackson Immuno Research, PA). PC12 cells stably transfected with M1 mAChR APPs bands were probed using the anti-Alzheimer precursor protein A4 (1:4,000; monoclonal 22C11 antibody, Boehringer Mannheim) and the peroxidase-linked rabbit anti mouse IgG (1:20,000; Jackson Immuno Research, PA). Following extensive washout, the membranes were treated with Western Lightning Chemiluminescence Reagent Plus (PerkinElmer Life Sciences, MA) followed by exposure to SuperRX film (Fuji Medical X-ray film, Tokyo, Japan). Quantitative determination of the total APPs bands was performed by Scion Image program (NIH, Bethesda, USA). Samples of control and CCh were assayed in parallel and thus enabled compilation of data from separate experiments.

rat M1 mAChR = target: T2, rat M1 mAChR (Rattus norvegicus, UniProt P08482); assay: αAPPs secretion in PC12 cells stably transfected with rat M1 mAChR; type: cell-based; conditions: 0.1 nM to 1 μM, not observed in untransfected PC12
T2 construct: expressed in transfected cells; host or cells: rat pheochromocytoma PC12 cells
Experimental: as §1, with “Following extensive washout, the membranes were treated with Western Lightning Chemiluminescence Reagent Plus (PerkinElmer Life Sciences, MA) followed by exposure to SuperRX film (Fuji Medical X-ray film, Tokyo, Japan).” left out, “Samples of control and CCh were assayed in parallel and thus enabled compilation of data from separate experiments.” left out

M1 mAChR [3] = target: T1, M1 mAChR

T2 sequence (P08482 whole entry): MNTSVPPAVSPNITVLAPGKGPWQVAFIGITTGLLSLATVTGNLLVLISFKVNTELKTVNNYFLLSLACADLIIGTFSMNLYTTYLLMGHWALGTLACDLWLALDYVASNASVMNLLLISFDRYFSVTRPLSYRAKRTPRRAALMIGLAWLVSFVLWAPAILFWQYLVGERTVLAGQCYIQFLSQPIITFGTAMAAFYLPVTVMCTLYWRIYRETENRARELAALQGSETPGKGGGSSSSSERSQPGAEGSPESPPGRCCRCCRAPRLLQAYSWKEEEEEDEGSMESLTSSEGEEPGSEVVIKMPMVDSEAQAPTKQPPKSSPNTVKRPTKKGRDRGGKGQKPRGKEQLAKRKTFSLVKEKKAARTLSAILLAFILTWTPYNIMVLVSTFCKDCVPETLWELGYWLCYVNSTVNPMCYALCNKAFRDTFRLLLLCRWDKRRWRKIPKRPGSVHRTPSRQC

Structure (SMILES) | protection against toxicity induced by Aβ25-35 (MTT) (PC12 cells) | M1 agonist at 100 μM vs. carbachol (full muscarinic agonist, 100%) (M1 mAChR [1]) [%] | release of αAPPs (M1 mAChR [2]; CHO cells, 0.1 nM to 1 μM) | maximal αAPPs secretion in comparison to untreated control cells (M1 mAChR [2]; doubly-transfected CHO cells, AF710B at 0.01 μM, AF710 at 0.1 μM, AF710A at 1 μM) [%] | release of αAPPs (rat M1 mAChR) | effect of brucine pre-incubation on elevation of intracellular calcium ions (M1 mAChR [3])
O=C(O)CCc1c[nH]c2ccccc12 [3-IPA, 3-Indolepropionic acid, reference compound] | protected cells |  |  |  |  | 
CC1OC2(CCN(C)CC2)CN1C(=O)CCc1c[nH]c2ccccc12 (racemic) [AF711, 1-(2,8-dimethyl-1-oxa-3,8-diazaspiro[4.5]dec-3-yl)-3-(1H-indol-3-yl)-propan-1-one] | protected cells | 19 |  |  |  | 
CC1SC2(CCN(C)CC2)CN1C(=O)CCc1c[nH]c2ccccc12 (racemic) [AF710, 1-(2,8-dimethyl-1-thia-3,8-diazaspiro[4.5]dec-3-yl)-3-(1H-indol-3-yl) propan-1-one] | protected cells | 40 | enhanced the release of αAPPs | 175 | enhanced the release of αAPPs | no such effect
